# Test results from patent US9586931B2 (Merck Sharp & Dohme Corp., priority 2012, dated 2017).
# “And” between values parts separate entries of the source, which are not always exact repeats. Identical values can stand only once.
# Target: T1, recombinant human GST-Syk (Homo sapiens, UniProt P43405)
# T1 construct: purchased Carna Biosciences 08-176
# Test: Homogeneous Time-Resolved Fluorescence (HTRF) assay for the recombinant human Syk enzyme
# Format: biochemical
# Conditions: recombinant human GST-Syk 5 pM, ATP 25 μM, 10-dose titration 10 μM to 0.508 nM; read-out: rhSYK Activity IC50
# Method: Syk inhibition may be determined using the following assay protocol:
# Homogeneous Time-Resolved Fluorescence (HTRF) assay for the recombinant human Syk enzyme: A recombinant GST-hSyk fusion protein was used to measure potency of compounds to inhibit human Syk activity. […] Final volume of the reaction was 10 μL. Phosphorylation of the peptide was allowed to proceed for 45 minutes at room temperature. To quench the reaction and detect the phosphorylated product, 2 nM of a Europium-anti-phosphotyrosine antibody (Perkin Elmer #AD0161) and 70 nM SA-APC (Perkin-Elmer #CR130-100) were added together in 15 mM Tris pH 7.5, 40 mM EDTA, 0.01% tween 20. Final volume of the quenching solution was 10 μL. The resulting HTRF signal was measured after 30 minutes on an EnVision (Perkin-Elmer) reader using a time-resolved fluorescence protocol.
row,IC50,Structure (SMILES)
1,35.2 nM and 17 nM,"Cc1cc(Nc2cc(C(F)(F)F)ccn2)nc(-c2cn(C(C)C(=O)O)nn2)c1 (racemic) [Example 5.43, 2-[4-(4-methyl-6-{[4-(trifluoromethyl)pyridin-2-yl]amino}pyridin-2-yl)-1H-1,2,3-triazol-1-yl]propanoic acid]"
2,48.6 nM,"CC/C=C/Cn1cc(-c2cc(C)cc(Nc3cc(C(F)(F)F)ccn3)n2)nn1 [Example 5.31, 4-methyl-6-{1-[(2E)-pent-2-en-1-yl]-1H-1,2,3-triazol-4-yl}-N-[4-(trifluoromethyl)pyridin-2-yl]pyridin-2-amine]"
3,8.1 nM,"Cc1cc(Nc2nccc(C(F)(F)F)n2)cc(-n2cc([C@@]3(O)CC[C@H](C(=O)O)C(C)(C)C3)nn2)c1 [Example 15.9, (1S,4R)-4-hydroxy-2,2-dimethyl-4-[1-(3-methyl-5-{[4-(trifluoromethyl)pyrimidin-2-yl]amino}phenyl)-1H-1,2,3-triazol-4-yl]cyclohexanecarboxylic acid]"
4,21.1 nM,"Cc1cc(Nc2nccc(OC(C)C)n2)cc(-c2cn(CC(C)(O)C(C)(C)O)nn2)c1 (centres unmarked) [Example 21.31, 2,3-dimethyl-1-[4-(3-methyl-5-{[4-(1-methylethoxy)pyrimidin-2-yl]amino}phenyl)-1H-1,2,3-triazol-1-yl]butane-2,3-diol]"
5,8 nM,"Cc1cc(Nc2nccc(C(F)F)n2)cc(-c2cn(CC3(C)CNC(=O)O3)nn2)c1 (single isomer, unassigned) [Example 7.31, 5-{[4-(3-{[4-(difluoromethyl)pyrimidin-2-yl]amino}-5-methylphenyl)-1H-1,2,3-triazol-1-yl]methyl}-5-methyl-1,3-oxazolidin-2-one]"
6,177 nM,"Cc1cc(Nc2nccc(C(F)(F)F)n2)cc(-c2cn(CCCN3CCOCC3)nn2)c1 [Example 5.51, N-{3-mcthyl-5-[1-(3-morpholin-4-ylpropyl)-1H-1,2,3-triazol-4-yl]phenyl}-4-(trifluoromethyl)pyrimidin-2-amine]"
7,6.4 nM,"Cc1cc(Nc2cc(C3CC3)ccn2)nc(-c2cn(C(C)c3ccc(C(=O)O)cc3)nn2)c1 (centres unmarked) [Example 2.11, 4-[1-(4-{6-[(4-cyclopropylpyridin-2-yl)amino]-4-methylpyridin-2-yl}-1H-1,2,3-triazol-1-yl)ethyl]benzoic acid]"
8,152 nM,"Cc1cc(Nc2nccc(C(F)(F)F)n2)cc(-c2cn(CC(=O)N3CCOCC3(C)C)nn2)c1 [Example 5.66, N-(3-{1-[2-(3,3-dimethylmorpholin-4-yl)-2-oxoethyl]-1H-1,2,3-triazol-4-yl}-5-methylphenyl)-4-(trifluoromethyl)pyrimidin-2-amine]"
9,9.1 nM,"Cc1cc(Nc2cc(C(F)(F)F)ccn2)nc(-c2cn(CC(C)(O)CO)nn2)c1 (centres unmarked) [Example 10.14, 2-methyl-3-[4-(4-methyl-6-{[4-(trifluoromethyl)pyridin-2-yl]amino}pyridin-2-yl)-1H-1,2,3-triazol-1-yl]propane-1,2-diol]"
10,19.8 nM,"Cc1cc(Nc2cc(C(F)(F)F)ccn2)nc(-c2cn(C3CNCC3O)nn2)c1 (racemic) [Example 5.22, 4-[4-(4-methyl-6-{[4-(trifluoromethyl)pyridin-2-yl]amino}pyridin-2-yl)-1H-1,2,3-triazol-1-yl]pyrrolidin-3-ol]"
11,752 nM,"Cc1cc(Nc2cc(C(F)(F)F)ccn2)nc(-c2cn(C/C=C/COc3ccccc3Cl)nn2)c1 [Example 5.32, 6-{1-[(2E)-4-(2-chlorophenoxy)but-2-en-1-yl]-1H-1,2,3-triazol-4-yl}-4-methyl-N-[4-(trifluoromethyl)pyridin-2-yl]pyridin-2-amine]"
12,16.2 nM,"Cc1cc(Nc2ncc(F)c(C(F)F)n2)cc(-c2cn(CC3CNC(=O)O3)nn2)c1 (centres unmarked) [Example 7.36, 5-{[4-(3-{[4-(difluoromethyl)-5-fluoropyrimidin-2-yl]amino}-5-methylphenyl)-1H-1,2,3-triazol-1-yl]methyl}-1,3-oxazolidin-2-one]"
13,13.1 nM,"Cc1cc(Nc2ncc(F)c(C(F)F)n2)cc(-c2cn(C3CCCCC3(C)O)nn2)c1 (single isomer, unassigned) [Example 7.26, 2-[4-(3-{[4-(difluoromethyl)-5-fluoropyrimidin-2-yl]amino}-5-methylphenyl)-1H-1,2,3-triazol-1-yl]-1-methylcyclohexanol]"
14,1.1 nM,"Cc1cc(Nc2nccc(C(F)F)n2)cc(-c2cn(CC3OC(=O)NC34CC4)nn2)c1 (single isomer, unassigned) [Example 7.17, 7-((4-(3-((4-(difluoromethyl)pyrimidin-2-yl)amino)-5-methylphenyl)-1H-1,2,3-triazol-1-yl)methyl)-6-oxa-4-azaspiro[2.4]heptan-5-one]"
15,8.3 nM,"Cc1cc(Nc2cc(C(F)(F)F)ccn2)nc(-c2cn(C/C=C/C(=O)O)nn2)c1 [Example 5.45, (2E)-4-[4-(4-methyl-6-{[4-(trifluoromethyl)pyridin-2-yl]amino}pyridin-2-yl)-1H-1,2,3-triazol-1-yl]but-2-enoic acid]"
16,146 nM,"CCCC(C(=O)OCC)n1cc(-c2cc(C)cc(Nc3cc(C(F)(F)F)ccn3)n2)nn1 (racemic) [Example 5.27, ethyl 2-[4-(4-methyl-6-{[4-(trifluoromethyl)pyridin-2-yl]amino}pyridin-2-yl)-1H-1,2,3-triazol-1-yl]pentanoate]"
17,5.5 nM,"Cc1cc(Nc2nccc(C(F)F)n2)cc(-c2cn(C(C)C3CNC(=O)O3)nn2)c1 (single isomer, unassigned) [Example 7.3, 5-(1-(4-(3-((4-(difluoromethyl)pyrimidin-2-yl)amino)-5-methylphenyl)-1H-1,2,3-triazol-1-yl)ethyl)oxazolidin-2-one]"
18,4.2 nM,"Cc1cc(Nc2cc(C(F)(F)F)ccn2)nc(-c2cn([C@@H]3CN(C(=O)CO)C[C@H]3O)nn2)c1 (racemic) [Example 13.1, (+/−)-2-Bydroxy-1-((3R,4R)-3-hydroxy-4-(4-(4-methyl-6-((4-(trifluoromethyl)pyridin-2-yl)amino)pyridin-2-yl)-1H-1,2,3-triazol-1-yl)pyrrolidin-1-yl)ethanone]"
19,73.8 nM and 81.8 nM,"Cc1cc(Nc2nccc(C(F)(F)F)n2)cc(-c2cn(CC(N)=O)nn2)c1 [Example 5.79, 2-[4-(3-methyl-5-{[4-(trifluoromethyl)pyrimidin-2-yl]amino}phenyl)-1H-1,2,3-triazol-1-yl]acetamide]"
20,87.2 nM,"Cc1cc(Nc2cc(C(F)(F)F)ccn2)nc(-c2cn([C@@H](C)C(=O)N3CCC[C@H]3C(N)=O)nn2)c1 [Example 1.20, 1-{(2S)-2-[4-(4-methyl-6-{[4-(trifluoromethyl)pyridin-2-yl]amino}pyridin-2-yl)-1H-1,2,3-triazol-1-yl]propanoyl}prolinamide]"
21,2 nM,"Cc1cc(Nc2cc(C(F)(F)F)ccn2)nc(-c2cn(CC3(O)CCC3)nn2)c1 [Example 4.27, 1-{[4-(4-methyl-6-{[4-(trifluoromethyl)pyridin-2-yl]amino}pyridin-2-yl)-1H-1,2,3-triazol-1-yl]methyl}cyclobutanol]"
22,1130 nM,Cc1cc(Nc2cc(C(F)(F)F)ccn2)nc(-c2cn(-c3ccc(Br)cn3)nn2)c1 [6.2]
23,15 nM,"Cc1cc(Nc2cc(C(F)(F)F)ccn2)nc(-c2cn(C3CN(C(=O)C(C)O)CC3O)nn2)c1 (single isomer, unassigned) [Example 13.4, 1-[2-hydroxypropanoyl]-4-[4-(4-methyl-6-{[4-(trifluoromethyl)pyridin-2-yl]amino}pyridin-2-yl)-1H-1,2,3-triazol-1-yl]pyrrolidin-3-ol]"
24,31.9 nM,"Cc1cc(Nc2cc(C)c(Cl)cn2)nc(-c2cn(CC(C)(O)C(C)(C)O)nn2)c1 (centres unmarked) [Example 21.24, 1-(4-{6-[(5-chloro-4-methylpyridin-2-yl)amino]-4-methylpyridin-2-yl}-1H-1,2,3-triazol-1-yl)-2,3-dimethylbutane-2,3-diol]"
25,4.3 nM,"Cc1cc(Nc2cc(C(F)F)ccn2)nc(-c2cn(CC3OC(=O)NC3C)nn2)c1 (single isomer, unassigned) [Example 7.15, 5-((4-(6-((4-(difluoromethyl)pyridin-2-yl)amino)-4-methylpyridin-2-yl)-1H-1,2,3-triazol-1-yl)methyl)-4-methyloxazolidin-2-one]"
26,912 nM,"Cc1cc(Nc2cc(C(F)(F)F)ccn2)nc(-c2cn(C(C)C(=O)NCCc3ccccc3Oc3ccccc3)nn2)c1 (centres unmarked) [Example 1.42, 2-[4-(4-methyl-6-{[4-(trifluoromethyl)pyridin-2-yl]amino}pyridin-2-yl)-1H-1,2,3-triazol-1-yl]-N-[2-(2-phenoxyphenyl)ethyl]propanamide]"
27,29.4 nM,"Cc1cc(Nc2nccc(C(F)(F)F)n2)cc(-c2cn(CC(O)C(F)(F)F)nn2)c1 (racemic) [Example 5.54, 1,1,1-trifluoro-3-[4-(3-methyl-5-{[4-(trifluoromethyl)pyrimidin-2-yl]amino}phenyl)-1H-1,2,3-triazol-1-yl]propan-2-ol]"
28,3.2 nM,"Cc1cc(Nc2cc(C(F)(F)F)ccn2)nc(-c2cn(C3(CO)CCC3)nn2)c1 [Example 13.6, {1-[4-(4-methyl-6-{[4-(trifluoromethyl)pyridin-2-yl]amino}pyridin-2-yl)-1H-1,2,3-triazol-1-yl]cyclobutyl}methanol]"
29,345 nM,"Cc1cc(Nc2cc(C(F)(F)F)ccn2)nc(-c2cn(C(C)C(=O)NCc3c(-c4ccccc4)noc3C)nn2)c1 (centres unmarked) [Example 1.47, N-[(5-methyl-3-phenylisoxazol-4-yl)methyl]-2-[4-(4-methyl-6-{[4-(trifluoromethyl)pyridin-2-yl]amino}pyridin-2-yl)-1H-1,2,3-triazol-1-yl]propanamide]"
